Reference: ChEMBL document CHEMBL1201862, “PubChem BioAssay data set” (2004)
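Five concentrations, 48 hours, 96-well plates. GI50 is the concentration that inhibits growth by half.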 Calls of active or inactive are those of the source. Cut-off read from the data, not from the text of the source: active = GI50 up to about 1.1 µM and inactive = higher.

Assays:
Experiment in all cases: NCI anticancer screen, dose series, 48 h
OVCAR-8 = tested on: OVCAR-8
SF-268 = tested on: SF-268
NCI/ADR-RES = tested on: NCI/ADR-RES
OVCAR-3 = tested on: OVCAR-3
IGROV-1 = tested on: IGROV-1
NCI-H226 = tested on: NCI-H226
SW-620 = tested on: SW-620
OVCAR-5 = tested on: OVCAR-5
NCI-H522 = tested on: NCI-H522
OVCAR-4 = tested on: OVCAR-4
A498 = tested on: A498
HOP-92 = tested on: HOP-92
MCF7 = tested on: MCF7
SK-OV-3 = tested on: SK-OV-3
786-0 = tested on: 786-0
ACHN = tested on: ACHN
SK-MEL-5 = tested on: SK-MEL-5
HT-29 = tested on: HT-29
K562 = tested on: K562
Hs-578T = tested on: Hs-578T

| SMILES | GI50 (OVCAR-8) | GI50 (SF-268) | GI50 (NCI/ADR-RES) | GI50 (OVCAR-3) | GI50 (IGROV-1) | GI50 (NCI-H226) | GI50 (SW-620) | GI50 (OVCAR-5) | GI50 (NCI-H522) | GI50 (OVCAR-4) | GI50 (A498) | GI50 (HOP-92) | GI50 (MCF7) | GI50 (SK-OV-3) | GI50 (786-0) | GI50 (ACHN) | GI50 (SK-MEL-5) | GI50 (HT-29) | GI50 (K562) | GI50 (Hs-578T) |
| --- | --- | --- | --- | --- | --- | --- | --- | --- | --- | --- | --- | --- | --- | --- | --- | --- | --- | --- | --- | --- |
| Cc1ccc2ccc(O)cc2c1 | 23.3 µM (inactive) | 31.8 µM (inactive) | 24.8 µM (inactive) | 10.2 µM (inactive) | 20.7 µM (inactive) | 39.3 µM (inactive) | 37 µM (inactive) | 55.8 µM (inactive) | 19.9 µM (inactive) | 20.9 µM (inactive) | 37.2 µM (inactive) | 24.9 µM (inactive) | 31.2 µM (inactive) | 26.9 µM (inactive) | 76.2 µM (inactive) | 53.6 µM (inactive) | 57.4 µM (inactive) | 53.6 µM (inactive) | 20.2 µM (inactive) | 37.9 µM (inactive) |
| Cc1ccccc1NC(=O)C(=O)Cc1cnc2ccccc2n1 | > 100 µM (inactive) | > 100 µM (inactive) | > 100 µM (inactive) | > 100 µM (inactive) | > 100 µM (inactive) | > 100 µM (inactive) | > 100 µM (inactive) | > 100 µM (inactive) | > 100 µM (inactive) | > 100 µM (inactive) | > 100 µM (inactive) | > 100 µM (inactive) | > 100 µM (inactive) | > 100 µM (inactive) | > 100 µM (inactive) | > 100 µM (inactive) | > 100 µM (inactive) | > 100 µM (inactive) | > 100 µM (inactive) | > 100 µM (inactive) |
| O=Cc1cc2c(o1)C(=O)c1ccccc1C2=O | 1.26 µM (inactive) | 1.55 µM (inactive) | 1.81 µM (inactive) | 0.358 µM (active) | 1.33 µM (inactive) | 1.07 µM (active) | 0.318 µM (active) | 1.77 µM (inactive) | 1.48 µM (inactive) | 1.17 µM (inactive) | 4.78 µM (inactive) | 1.83 µM (inactive) | 0.213 µM (active) | 2.85 µM (inactive) | 1.25 µM (inactive) | 1.98 µM (inactive) | 0.233 µM (active) | 0.581 µM (active) | 1.46 µM (inactive) | 0.251 µM (active) |
| CO/C=C(/C(=O)OC)c1ccccc1COc1cccc(C(F)(F)F)c1 | 8.69 µM (inactive) | 8.77 µM (inactive) | 5.31 µM (inactive) | 10.2 µM (inactive) | 4.57 µM (inactive) | 1.89 µM (inactive) | – | > 100 µM (inactive) | 0.526 µM (active) | 8 µM (inactive) | 4.85 µM (inactive) | 5.65 µM (inactive) | 5.35 µM (inactive) | 27.9 µM (inactive) | 8.09 µM (inactive) | 3.63 µM (inactive) | 0.473 µM (active) | 4.14 µM (inactive) | 3.76 µM (inactive) | 10.3 µM (inactive) |
| COc1cc2c(OC)c(c1)CCCC1=CC(=O)C=C(CCC2)C1=O | 20.4 µM (inactive) | 37.8 µM (inactive) | 32 µM (inactive) | 22.6 µM (inactive) | 40.8 µM (inactive) | > 100 µM (inactive) | 32.1 µM (inactive) | > 100 µM (inactive) | 21 µM (inactive) | 17.2 µM (inactive) | > 100 µM (inactive) | 5.6 µM (inactive) | 39 µM (inactive) | 56.9 µM (inactive) | 29 µM (inactive) | 47.5 µM (inactive) | 30.3 µM (inactive) | 44.9 µM (inactive) | 14.6 µM (inactive) | 30.9 µM (inactive) |
| COP(=O)(OC)/C(=C/c1cn(C(c2ccccc2)(c2ccccc2)c2ccccc2)cn1)NC=O | 21.7 µM (inactive) | 14.5 µM (inactive) | 17.3 µM (inactive) | 14.9 µM (inactive) | 20.5 µM (inactive) | 29.5 µM (inactive) | 26 µM (inactive) | 20.6 µM (inactive) | 15.5 µM (inactive) | 18.2 µM (inactive) | 16.6 µM (inactive) | 18 µM (inactive) | 16 µM (inactive) | 34 µM (inactive) | 29.4 µM (inactive) | 12.1 µM (inactive) | 13.7 µM (inactive) | 16.4 µM (inactive) | 84.9 µM (inactive) | 16 µM (inactive) |
| CNC1C(O)CC(OC2C/C=C(\C)C/C(C)=C/C=C/CCC(C)CNC(=O)/C=C/C=C/C2C)OC1C (centres undefined) | 0.324 µM (active) | 0.746 µM (active) | 0.718 µM (active) | 0.986 µM (active) | 1.29 µM (inactive) | 2.77 µM (inactive) | 0.12 µM (active) | 1.18 µM (inactive) | 0.973 µM (active) | 0.303 µM (active) | 1.72 µM (inactive) | 0.451 µM (active) | 0.782 µM (active) | 1.15 µM (inactive) | 0.245 µM (active) | 1.5 µM (inactive) | 0.811 µM (active) | 0.224 µM (active) | 0.0995 µM (active) | 0.502 µM (active) |
